What is called IC90 is the concentration at which the effect reaches the 90% level. Broadly, the MIC is the lowest concentration found to suppress growth.

Each structure is given as a SMILES string. ≈ marks a conversion by molar mass, not a printed value. Where two headings read alike, the source gives them in different places.

Assay [1] has as its system yeast Y229-1 (PCDC48 (SEQ ID NO: 53)-PH05-Renlla Luciferase). Kind of assay: IC90 calculated from Renilla luciferase light output (baseline promoter reporter). As to conditions: 24 hours at 30° C., YPD, 1% DMSO. It is filed as cell-based, Saccharomyces cerevisiae.
Assay [2] shares this test system. Kind of assay: MIC determined visually. It is filed as cell-based, Saccharomyces cerevisiae. The following applies: minimum inhibitor concentration at which there is an approximately 90% drop in cell number relative to the uninhibited control.
[3] abbreviates: Saccharomyces cerevisiae, inhibitor concentration at which there is a 90% drop in luciferase signal relative to the uninhibited control, read-out: IC90.
Where [4] appears, read: Saccharomyces cerevisiae, read-out: MIC.

In the case of `Nc1nc(=O)[nH]cc1F` [5FC, 5-fluorocytosine], the concentration for an effect of 90% (IC90) in assay [1] (setting [3]) is 1.9 µg/mL (≈ 14.7 µM). Moreover, the MIC in assay [2] (setting [4]) amounted to 2.5 µg/mL (≈ 19.4 µM).

In the case of `C[C@@H]1[C@H](O)[C@@H](C)/C=C/C=C/C=C/C=C/C=C/C=C/C=C/[C@H](O[C@@H]2O[C@H](C)[C@@H](O)[C@H](N)[C@@H]2O)C[C@@H]2O[C@](O)(C[C@@H](O)C[C@@H](O)[C@H](O)CC[C@@H](O)C[C@@H](O)CC(=O)O[C@H]1C)C[C@H](O)[C@H]2C(=O)O` [AMB, amphotericin B], the concentration for an effect of 90% (IC90) in assay [1] (inhibitor concentration at which there is a 90% drop in luciferase signal relative to the uninhibited control) was 0.3 µg/mL (≈ 0.325 µM). Also, in assay [2], the MIC was determined as 0.3 µg/mL (≈ 0.325 µM).

As for `CC[C@H](C)C[C@H](C)CCCCCCCCC(=O)N[C@H]1C[C@@H](O)[C@@H](NCCN)NC(=O)[C@@H]2[C@@H](O)CCN2C(=O)[C@H]([C@H](O)CCN)NC(=O)[C@H]([C@H](O)[C@@H](O)c2ccc(O)cc2)NC(=O)[C@@H]2C[C@@H](O)CN2C(=O)[C@H]([C@@H](C)O)NC1=O` [CSP, caspofungin], the 90% effect concentration (IC90) in assay [1] (Saccharomyces cerevisiae, […], read-out: IC90) is 0.02 µg/mL (≈ 0.0183 µM). In addition, the MIC in assay [2] (setting [4]) was 0.015 µg/mL (≈ 0.0137 µM).

In the case of `OC(Cn1cncn1)(Cn1cncn1)c1ccc(F)cc1F` [FLU, fluconazole], in assay [1] (setting [3]), the concentration for an effect of 90% (IC90) is 0.3 µg/mL (≈ 0.98 µM). Moreover, the MIC in assay [2] (setting [4]) turned out to be 0.2 µg/mL (≈ 0.653 µM).

Regarding `CN(C/C=C/C#CC(C)(C)C)Cc1cccc2ccccc12` [TRB, terbinafine], the IC90 in assay [1] (setting [3]) was 1.4 µg/mL (≈ 4.8 µM). In addition, the minimum inhibitory concentration (MIC) in assay [2] (setting [4]) is 1.56 µg/mL (≈ 5.35 µM).

As to `C[C@@H](c1ncncc1F)[C@](O)(Cn1cncn1)c1ccc(F)cc1F` [VOR, voriconazole], the IC90 in assay [1] (setting [3]) was 0.008 µg/mL (≈ 0.0229 µM). Further, in assay [2] (setting [4]), the MIC turned out to be 0.015 µg/mL (≈ 0.0429 µM).

Values taken from patent publication US7872115B2, “Reporter assay screens for protein targets in Saccharomyces cerevisiae” (Schering Corporation, priority 2004, dated 2011).
